Experiments:
Prothrombin [1] = biological target: T1, Prothrombin (Homo sapiens, UniProt P00734); assay: Inhibitory concentration against human alpha thrombin
Prothrombin [2] = biological target: T1, Prothrombin; assay: Binding affinity determined against human alpha thrombin
Serine protease 1 = biological target: T2, Serine protease 1 (Bos taurus, UniProt P00760); assay: Binding affinity against bovine trypsin
T2 sequence (P00760 whole entry): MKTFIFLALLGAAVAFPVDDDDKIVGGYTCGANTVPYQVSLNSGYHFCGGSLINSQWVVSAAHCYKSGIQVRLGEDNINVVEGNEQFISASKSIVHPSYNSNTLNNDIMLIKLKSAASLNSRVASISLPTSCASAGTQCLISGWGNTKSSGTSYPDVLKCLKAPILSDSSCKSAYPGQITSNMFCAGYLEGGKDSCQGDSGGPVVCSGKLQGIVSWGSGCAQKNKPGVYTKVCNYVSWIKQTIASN

Cavia porcellus [3] = assay: Percent change in blood pressure in guinea pig at 10 mg/kg dose
Homo sapiens = species on record: Homo sapiens; assay: Inhibitory concentration against gel filtered platelet aggregation induced by alpha thrombin; type: functional
Cavia porcellus [4] = assay: Percent change in blood pressure in guinea pig at 3 mg/kg dose

Row | Compound | IC50 (Prothrombin [1]) | Ki (Prothrombin [2]) | Ki (Serine protease 1) | Delta BP (Cavia porcellus [3]) | IC50 (Homo sapiens) | Delta BP (Cavia porcellus [4])
1 | CN[C@H](Cc1ccccc1)C(=O)N1CCC[C@H]1C(=O)NC(CCCN=C(N)N)C(=O)c1nc(C(=O)O)cs1 (some centres not stated) | 112 nM | 9.1 nM | 6 nM |  |  | 
2 | CN[C@H](Cc1ccccc1)C(=O)N1CCC[C@H]1C(=O)N[C@@H](C[C@H]1CCCN(C(=N)N)C1)C(=O)c1nc2ccccc2s1 | 1000 nM | 99 nM | 210 nM |  |  | 
3 | CN[C@H](Cc1ccccc1)C(=O)N1CCC[C@H]1C(=O)N[C@@H](Cc1cccc(C(=N)N)c1)C(=O)c1nc2ccccc2s1 |  | 0.99 nM | 1.8 nM |  |  | 
4 | CN[C@H](Cc1ccccc1)C(=O)N1CCC[C@H]1C(=O)N(C)[C@@H](CCCN=C(N)N)C(=O)c1nc2ccccc2s1 | 21000 nM | 2100 nM | 5300 nM |  |  | 
5 | CN[C@H](Cc1ccccc1)C(=O)N1CCC[C@H]1C(=O)N[C@@H](CCCNC(=N)N)C(=O)c1nccn1C | 1500 nM |  | 5800 nM | -68% | 230 nM | 
6 | CN[C@H](Cc1ccccc1)C(=O)N1CCCC[C@H]1C(=O)NC(CCCN=C(N)N)C(=O)c1nc2ccccc2s1 (some centres not stated) | 38 nM | 0.34 nM | 1.8 nM |  | 10 nM | -45%
7 | CN[C@H](Cc1ccccc1)C(=O)N1CCC[C@H]1C(=O)N[C@@H](C[C@@H]1CCCN(C(=N)N)C1)C(=O)c1nc2ccccc2s1 | 51 nM | 1.6 nM | 8 nM |  |  | 
8 | CN[C@H](Cc1ccccc1)C(=O)N1CCC[C@H]1C(=O)NC(CCCN=C(N)N)C(=O)c1nc2c(s1)CCCC2 (some centres not stated) | 80 nM | 3.4 nM | 4.4 nM | -70% | 22 nM | 
9 | CN[C@H](Cc1ccccc1)C(=O)N1CCC[C@H]1C(=O)N[C@H](C(=O)c1nc2ccccc2s1)[C@H]1CC[C@H](CN)CC1 | 17000 nM | 920 nM | 54 nM |  |  | 
10 | CN[C@H](Cc1ccccc1)C(=O)N1CCC[C@H]1C(=O)NC(CCCN=C(N)N)C(=O)c1nc2ccccc2c(=O)[nH]1 (some centres not stated) | 106 nM | 15 nM | 8.3 nM |  |  | 
11 | CN[C@H](Cc1ccccc1)C(=O)N1CCC[C@H]1C(=O)NC(CCCN=C(N)N)C(=O)c1cc2ccccc2s1 (some centres not stated) | 13000 nM | 2400 nM | 1300 nM |  |  | 
12 | CN[C@@H](C(=O)N1CCC[C@H]1C(=O)NC(CCCN=C(N)N)C(=O)c1nc2ccccc2s1)C1CCCCC1 (some centres not stated) | 5.3 nM |  | 1.2 nM |  | 17 nM | -21%
13 | CN[C@H](Cc1ccccc1)C(=O)N1CCC[C@H]1C(=O)NC(CCCN=C(N)N)C(=O)c1nc2ccccc2o1 (some centres not stated) | 110 nM | 6.2 nM | 13 nM |  |  | 
14 | CN[C@H](Cc1ccccc1)C(=O)N1CCC[C@H]1C(=O)N[C@H](C=O)CCCN=C(N)N (stereo in doubt) |  | 18 nM |  |  |  | 
15 | CN[C@H](Cc1ccccc1)C(=O)N1CCC[C@H]1C(=O)N[C@H](CCCN=C(N)N)C(=O)c1nc2ccccc2s1 | 80 nM | 17 nM |  |  |  | 
16 | NC(N)=NCCCC(NC(=O)[C@@H]1CCCN1)C(=O)c1nc2ccccc2s1 (some centres not stated) |  |  | 250 nM |  |  | 
17 | CN[C@H](Cc1ccccc1)C(=O)N1CCC[C@H]1C(=O)N[C@@H](CCCOC)C(=O)c1nc2ccccc2s1 | 46000 nM | 3900 nM | 12000 nM |  |  | 
18 | NC(N)=NCCCC(NC=O)C(=O)c1nc2ccccc2s1 (configuration not stated) | > 50000 nM |  | 1300 nM |  |  | 
19 | CN[C@H](Cc1ccccc1)C(=O)N1CCC[C@H]1C(=O)N[C@@H](CCCNC(=N)N)C(=O)c1nccs1 | 19 nM |  | 1.2 nM |  |  | 
20 | CN[C@H](Cc1ccc(F)cc1)C(=O)N1CCC[C@H]1C(=O)NC(CCCN=C(N)N)C(=O)c1nc2ccccc2s1 (some centres not stated) | 15 nM | 0.12 nM | 3 nM |  |  | 
21 | CC(=O)N[C@H](Cc1ccccc1)C(=O)N1CCC[C@H]1C(=O)NC(CCCN=C(N)N)C(=O)c1nc2ccccc2s1 (some centres not stated) | 430 nM |  | 2.4 nM |  |  | 
22 | CCOC(=O)c1csc(C(=O)C(CCCN=C(N)N)NC(=O)[C@@H]2CCCN2C(=O)[C@@H](Cc2ccccc2)NC)n1 (some centres not stated) | 120 nM | 4.5 nM | 5.4 nM |  |  | 
23 | CN[C@H](Cc1c(F)c(F)c(F)c(F)c1F)C(=O)N1CCC[C@H]1C(=O)NC(CCCN=C(N)N)C(=O)c1nc2ccccc2s1 (some centres not stated) | 150 nM | 3.8 nM | 9.3 nM |  |  | 
24 | CN[C@H](CC1CCCCC1)C(=O)N1CCC[C@H]1C(=O)NC(CCCN=C(N)N)C(=O)c1nc2ccccc2s1 (some centres not stated) |  |  | 3.9 nM |  | 28 nM | -49%
25 | CN[C@H](Cc1ccccc1)C(=O)N1CCC[C@H]1C(=O)N[C@H](Cc1cccc(C(=N)N)c1)C(=O)c1nc2ccccc2s1 | 370 nM | 15 nM | 2600 nM |  |  | 
26 | CN[C@H](Cc1ccccc1)C(=O)N1CCC[C@H]1C(=O)NC(C(=O)c1nc2ccccc2s1)C1CCC(N)CC1 (some centres not stated) | 1900 nM | 110 nM | 330 nM |  | 76 nM | -25%
